The text below walks through data of patent US9187465B2, “Oxazole tyrosine kinase inhibitors” (Sareum Limited, priority 2007, dated 2015).

One assay concerns the target T1, human FLT4 (Homo sapiens, UniProt P35916).
T1 construct: a construct expressing the human FLT4 (789-1207) with an amino terminal GST tag; host or cells: Sf9 insect cells (baculovirus)
As to the kind of experiment: FLT4 kinase assay (DELFIA enzyme inhibition). Type of assay: biochemical. The conditions noted are these: read-out: FLT4 IC50. The procedure, abridged: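 Read-out is DELFIA: biotinylated MET Tyr1253-derived peptide captured on Neutravidin, phosphotyrosine detected by Eu-antibody time-resolved fluorescence. Enzyme is Sf9-expressed GST-FLT4 (789-1207), reacting 30 min at room temperature before EDTA stop. IC50 derived from plotted % inhibition.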

In a further assay the target is T2, human Aurora A (Homo sapiens, UniProt O14965).
T2 construct: Histidine tag (N); host or cells: Sf9 insect cells (baculovirus)
T2 sequence (O14965 1-403): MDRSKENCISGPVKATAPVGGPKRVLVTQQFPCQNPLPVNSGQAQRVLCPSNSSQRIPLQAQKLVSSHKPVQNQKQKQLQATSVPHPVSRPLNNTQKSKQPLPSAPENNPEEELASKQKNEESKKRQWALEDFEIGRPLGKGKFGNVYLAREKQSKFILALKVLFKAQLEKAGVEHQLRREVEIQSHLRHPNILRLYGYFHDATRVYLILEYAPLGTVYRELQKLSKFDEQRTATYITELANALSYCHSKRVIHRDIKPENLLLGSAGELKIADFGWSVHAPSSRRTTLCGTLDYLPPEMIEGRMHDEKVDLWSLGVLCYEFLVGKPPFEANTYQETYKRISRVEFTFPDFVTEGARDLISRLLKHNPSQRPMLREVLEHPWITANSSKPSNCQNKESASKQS
As to the kind of experiment: Aurora A kinase assay (DELFIA enzyme inhibition). The assay is classed as biochemical. The conditions noted are these: read-out: Aurora A IC50. The protocol:
The protein was purified by one-step affinity chromatography using nickel-agarose […]
Assay reactions are set up in a 25 uL final volume on a 96 well plate. […] The reaction is allowed to proceed for 30 minutes at room temperature before stopping with 100 μL Stop solution comprising of 100 mM EDTA, 1×BSA blocker in TBS (Perbio) and 0.05% Surfact-Amps20 (Perbio).
The stopped reaction is transferred to a black 96-well Neutravidin-coated plate (Perbio) and incubated for 30 minutes to capture the biotinylated peptide substrate. […] After repeating the washing step, the plate is further incubated for one hour with Europium-labelled anti-rabbit antibody (Perkin Elmer AD0105). The wash step is repeated for a final time before DELFIA Enhancement solution (Perkin Elmer) is added to all wells for 5 minutes and the fluorescence measured on a plate reader Analyst HT (Molecular Devices).

In general, IC50 refers to the concentration at which inhibition is half-maximal.

T1 sequence (P35916 789-1207): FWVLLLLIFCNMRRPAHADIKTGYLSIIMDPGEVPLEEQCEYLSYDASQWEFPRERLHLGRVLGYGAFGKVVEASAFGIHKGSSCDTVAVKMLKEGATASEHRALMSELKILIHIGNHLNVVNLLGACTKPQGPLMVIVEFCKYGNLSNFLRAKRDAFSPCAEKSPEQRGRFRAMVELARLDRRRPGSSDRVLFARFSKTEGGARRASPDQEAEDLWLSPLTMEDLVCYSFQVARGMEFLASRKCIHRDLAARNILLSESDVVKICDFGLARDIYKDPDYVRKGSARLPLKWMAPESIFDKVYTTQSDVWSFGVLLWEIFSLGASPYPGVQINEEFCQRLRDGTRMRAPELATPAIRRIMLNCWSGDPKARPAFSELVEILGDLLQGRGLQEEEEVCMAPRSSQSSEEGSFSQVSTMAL

Turning to `COc1ccc(-c2nc(-c3cccc(OC)c3)[nH]c2C(N)=O)cc1` [Example A-4, 2-(3-methoxyphenyl)-4-(4-methoxyphenyl)-1H-imidazole-5-carboxamide], the IC50 at human FLT4 and on human Aurora A was less than 100 µM each time.

For `NC(=O)c1nc(-c2c(F)cccc2F)oc1Nc1ccc(C(=O)NCCN2CCOCC2)cc1` [Example U-9, 5-(4-((2-morpholinoethyl)carbamoyl)phenylamino)-2-(2,6-difluorophenyl)oxazole-4-carboxamide], the IC50 on human FLT4 and on human Aurora A was less than 10 µM each time.

As for `NC(=O)c1nc(-c2c(F)cccc2F)oc1-c1ccc(OCC2CNCCO2)cc1` (stereo not drawn) [Example S-15, 2-(2,6-difluorophenyl)-5-(4-(morpholin-2-ylmethoxy)phenyl)oxazole-4-carboxamide], the IC50 on human FLT4 and on human Aurora A was less than 10 µM in each case.

Regarding `COc1ccc(-c2nc(-c3ccc(OC)cc3)c(C(N)=O)[nH]2)cc1` [Example A-5, 2,4-bis(4-methoxyphenyl)-1H-imidazole-5-carboxamide], the IC50 on human FLT4 and on human Aurora A was less than 100 µM throughout.

`COc1ccc(-c2oc(-c3c(F)cccc3F)nc2C(N)=O)cc1` [Example E-2, 2-(2,6-difluorophenyl)-5-(4-methoxyphenyl)oxazole-4-carboxamide]: the IC50 was less than 10 µM on human FLT4 and less than 100 µM on human Aurora A.

As for `NC(=O)c1nc(-c2c(F)cccc2F)oc1Nc1ccc(OC(F)(F)F)cc1` [Example Q-42, 2-(2,6-difluorophenyl)-5-(4-(trifluoromethoxy)phenylamino)oxazole-4-carboxamide], the IC50 was less than 10 µM at human FLT4 and less than 100 µM on human Aurora A.

On to `CNCCNC(=O)c1ccc(Nc2oc(-c3c(F)cccc3F)nc2C(N)=O)cc1` [Example U-3, 5-(4-((2-(methylamino)ethyl)carbamoyl)phenylamino)-2-(2,6-difluorophenyl) oxazole-4-carboxamide], for which the IC50 on human FLT4 and at human Aurora A was less than 10 µM throughout.

Turning to `CS(=O)(=O)c1ccc(Nc2oc(-c3c(F)cccc3F)nc2C(N)=O)c(F)c1` [Example Q-43, 2-(2,6-difluorophenyl)-5-(2-fluoro-4-(methylsulfonyl)phenylamino)oxazole-4-carboxamide], the IC50 on human FLT4 is less than 10 µM; at human Aurora A, less than 100 µM.

As to `CN(C)c1ccc(-c2oc(-c3c(F)cccc3F)nc2C(N)=O)cc1` [Example F-3, 2-(2,6-difluorophenyl)-5-(4-(dimethylamino)phenyl)oxazole-4-carboxamide], the values for the IC50 on human FLT4 and on human Aurora A were less than 10 µM and less than 100 µM, respectively.

In the case of `NC(=O)c1nc(-c2c(F)cccc2F)oc1Nc1ccccc1` [Example O-1, 2-(2,6-difluorophenyl)-5-(phenylamino)oxazole-4-carboxamide], the IC50 at human FLT4 and at human Aurora A was less than 10 µM each time.

Take `CS(=O)(=O)c1cccc(Nc2oc(-c3c(F)cccc3F)nc2C(N)=O)c1` [Example Q-4, 2-(2,6-difluorophenyl)-5-(3-(methylsulfonyl)phenylamino)oxazole-4-carboxamide]: the IC50 on human FLT4 and on human Aurora A was less than 10 µM throughout.

Take `NCC1CCN(c2ccc(Nc3oc(-c4c(F)cccc4F)nc3C(N)=O)cc2)CC1` [Example Q-18, 5-(4-(4-(aminomethyl)piperidin-1-yl)phenylamino)-2-(2,6-difluorophenyl)oxazole-4-carboxamide]: the IC50 on human FLT4 and at human Aurora A was less than 10 µM in each case.

For the molecule `CNCCCNC(=O)c1ccc(Nc2oc(-c3c(F)cccc3F)nc2C(N)=O)cc1` [Example U-4, 5-(4-((3-(methylamino)propyl)carbamoyl)phenylamino)-2-(2,6-difluorophenyl) oxazole-4-carboxamide], the IC50 on human FLT4 and on human Aurora A was less than 10 µM in each case.

As to `COc1ccc(-c2nc(-c3c(F)cc(Br)cc3F)[nH]c2C(N)=O)cc1` [Example A-14, 2-(4-bromo-2,6-difluorophenyl)-4-(4-methoxyphenyl)-1H-imidazole-5-carboxamide], the IC50 on human FLT4 and on human Aurora A was less than 100 µM each time.

Consider `NC(=O)c1nc(-c2cccc3[nH]ncc23)oc1Nc1ccc(N2CCNCC2)cc1` [Example Q-59, 2-(1H-indazol-4-yl)-5-(4-(piperazin-1-yl)phenylamino)oxazole-4-carboxamide], for which the IC50 on human FLT4 and at human Aurora A was less than 10 µM each time.

`CC(=O)Nc1ccc(-c2oc(-c3c(F)cccc3F)nc2C(N)=O)cc1` [Example F-23, 5-(4-acetamidophenyl)-2-(2,6-difluorophenyl)oxazole-4-carboxamide]: the IC50 on human FLT4 was less than 10 µM; at human Aurora A, less than 100 µM.

For `COc1ccc(-c2nc(-c3c(Cl)cccc3Cl)[nH]c2C(N)=O)cc1` [Example A-10, 2-(2,6-dichlorophenyl)-4-(4-methoxyphenyl)-1H-imidazole-5-carboxamide], the IC50 at human FLT4 and on human Aurora A was less than 100 µM each time.

With `COc1ccc(-c2oc(Nc3cccc(C)c3)nc2C(N)=O)cc1` [Example R-6, 2-(m-toluidino)-5-(4-methoxyphenyl)oxazole-4-carboxamide], the IC50 on human FLT4 and on human Aurora A was less than 10 µM in each case.

As to `NC(=O)c1nc(-c2c(F)cccc2F)oc1Nc1ccc(C2CCNCC2)cc1` [Example Q-46, 2-(2,6-difluorophenyl)-5-(4-(piperidin-4-yl)phenylamino)oxazole-4-carboxamide], the IC50 at human FLT4 and on human Aurora A was less than 10 µM in each case.

On to `COc1ccc(-c2nc(-c3ccccc3OC)[nH]c2C(N)=O)cc1` [Example A-3, 2-(2-methoxyphenyl)-4-(4-methoxyphenyl)-1H-imidazole-5-carboxamide], for which the IC50 on human FLT4 and on human Aurora A was less than 100 µM each time.

With `NC(=O)c1nc(-c2c(F)cccc2F)oc1Nc1ccc2c(c1)OCO2` [Example Q-41, 5-(benzo[d][1,3]dioxol-5-ylamino)-2-(2,6-difluorophenyl)oxazole-4-carboxamide], the IC50 on human FLT4 and at human Aurora A was less than 100 µM throughout.

Regarding `CCN(CCO)CCOc1ccc(-c2oc(-c3c(F)cccc3F)nc2C(N)=O)cc1` [Example S-19, 2-(2,6-difluorophenyl)-5-(4-(2-(ethyl(2-hydroxyethyl)amino)ethoxy)phenyl)oxazole-4-carboxamide], the IC50 at human FLT4 and on human Aurora A was less than 10 µM throughout.

With `NC(=O)c1ccc(-c2oc(-c3c(F)cccc3F)nc2C(N)=O)cc1` [Example F-17, 5-(4-carbamoylphenyl)-2-(2,6-difluorophenyl)oxazole-4-carboxamide], the IC50 on human FLT4 and on human Aurora A was less than 10 µM throughout.

As for `CN1CCN(c2ccc(Nc3oc(-c4c(F)cccc4F)nc3C(N)=O)cn2)CC1` [Example Q-49, 2-(2,6-difluorophenyl)-5-(6-(4-methylpiperazin-1-yl)pyridin-3-ylamino)oxazole-4-carboxamide], the IC50 on human FLT4 and on human Aurora A was less than 10 µM throughout.

For `NC(=O)c1nc(-c2c(F)cccc2F)oc1-c1ccc(OCC2CCNCC2)cc1` [Example S-14, 2-(2,6-difluorophenyl)-5-(4-(piperidin-4-ylmethoxy)phenyl)oxazole-4-carboxamide], the IC50 on human FLT4 and on human Aurora A was less than 10 µM each time.

For `NC(=O)c1[nH]c(-c2c(F)cccc2F)nc1-c1cccs1` [Example A-16, 2-(2,6-difluorophenyl)-4-(thiophen-2-yl)-1H-imidazole-5-carboxamide], the values for the IC50 on human FLT4 and at human Aurora A were less than 10 µM and less than 100 µM, respectively.

`COc1ccc(-c2nc(-c3ccncc3)[nH]c2C(N)=O)cc1` [Example B-1, 4-(4-methoxyphenyl)-2-(pyridin-4-yl)-1H-imidazole-5-carboxamide]: the IC50 on human FLT4 and at human Aurora A was less than 100 µM in each case.

`CN(C)CCNC(=O)c1ccc(Nc2oc(-c3c(F)cccc3F)nc2C(N)=O)cc1` [Example U-8, 5-(4-((2-(dimethylamino)ethyl)carbamoyl)phenylamino)-2-(2,6-difluorophenyl) oxazole-4-carboxamide]: the IC50 on human FLT4 and on human Aurora A was less than 10 µM each time.

Regarding `NC(=O)c1nc(-c2c(F)cccc2F)oc1-c1ccc(OCCN2CCCC(O)C2)cc1` (stereo not drawn) [Example S-17, 2-(2,6-difluorophenyl)-5-(4-(2-(3-hydroxypiperidin-1-yl)ethoxy)phenyl)oxazole-4-carboxamide], the IC50 at human FLT4 and at human Aurora A was less than 10 µM in each case.

For the molecule `COc1ccccc1Nc1oc(-c2c(F)cccc2F)nc1C(N)=O` [Example Q-5, 2-(2,6-difluorophenyl)-5-(2-methoxyphenylamino)oxazole-4-carboxamide], the IC50 on human FLT4 was less than 10 µM; at human Aurora A, less than 100 µM.
